One series has as its system Mus musculus. Conditions: subchronic, duration: 90 days, inhalation, Crl:CD-1 (ICR) BR.
A further series deals with Monkey. Conditions: oral, Cynomolgus.
Another series has as its system Oryctolagus sp. Conditions: duration: 15 days, oral, F, New Zealand.
The mark [1] stands for this setting: F, General Toxicity: Whole Body: Body Weight Change + General Toxicity: Whole Body: Clinical Observations + General Toxicity: Whole Body: ….
Setting [2] is: F, Nervous: Brain: Brain Weight, Absolute + Nervous: Brain: Brain Weight, Relative.
Setting [3] is: M, Blood: Triglycerides (TRIG), Blood + Whole Body: Mortality.
Setting [4] is: M, General Toxicity: Whole Body: Body Weight Change + General Toxicity: Whole Body: Clinical Observations + General Toxicity: Whole Body: ….
Where [5] appears, read: M, Nervous: Brain: Brain Weight, Absolute + Nervous: Brain: Brain Weight, Relative.
Setting [6] is: chronic, duration: 26 weeks, M/F, Endocrine: Increased TSH and decreased total T3 + Hepatic: 47-55% increased absolute liver weight / 50-60% decreased serum cholesterol / ….
The mark [7] stands for this setting: reproduction developmental, Body Weight: 21% decreased mean maternal body weight gain on GDs 7-21 / no effect on food consumption.

On to `FC(Cl)C(F)(F)F` (stereo not drawn) [2-Chloro-1,1,1,2-tetrafluoroethane], for which the NEL was 279000 mg/m3 in the series with Mus musculus (F, Adrenal: Adrenal Gland Weight, Absolute + Adrenal: Adrenal Gland Weight, Relative + Blood: Hematology, Unspecified + Brain: Brain Weight, …); 279000 mg/m3 in the series with Mus musculus (M, Adrenal: Adrenal Gland Weight, Absolute + Adrenal: Adrenal Gland Weight, Relative + Blood: Hematology, Unspecified + Brain: Brain Weight, …); 27900 mg/m3 with Mus musculus (setting [3]). The lowest-observed-adverse-effect level (LOAEL) in the series with Mus musculus (F, Cardiovascular: Heart: Heart Weight, Absolute + Cardiovascular: Heart: Heart Weight, Relative + Endocrine: Adrenal: Adrenal Gland Weight, …) was found to be 83700 mg/m3; in the series on Mus musculus (setting [1]), 279000 mg/m3; in the series on Mus musculus (setting [2]), 83700 mg/m3; with Mus musculus (M, Cardiovascular: Heart: Heart Weight, Absolute + Cardiovascular: Heart: Heart Weight, Relative + Endocrine: Adrenal: Adrenal Gland Weight, …), 83700 mg/m3; in the series on Mus musculus (setting [4]) it was 279000 mg/m3; in the series on Mus musculus (setting [5]), 83700 mg/m3. In addition, the NOAEL is 83700 mg/m3 in the series with Mus musculus (setting [1]), 27900 mg/m3 in the series on Mus musculus (setting [2]), 83700 mg/m3 in the series with Mus musculus (setting [4]) and 27900 mg/m3 in the series on Mus musculus (setting [5]). In addition, the LEL in the series with Mus musculus (F, Whole Body: Mortality) turned out to be 27900 mg/m3; with Mus musculus (setting [3]) it was 83700 mg/m3; in the series with Mus musculus (M, Heart: Heart Weight, Relative + Whole Body: Body Weight Change) it was 27900 mg/m3.
Consider `O=S(=O)([O-])C(F)(F)C(F)(F)C(F)(F)C(F)(F)C(F)(F)C(F)(F)C(F)(F)C(F)(F)F.[K+]` [Potassium perfluorooctanesulfonate], for which the NOAEL was determined as 0.75 mg/kg-day in the series on Monkey (chronic, duration: 26 weeks, F); 0.15 mg/kg-day with Monkey (setting [6]); 0.75 mg/kg-day in the series with Monkey (chronic, duration: 26 weeks, M/F, Neurological: No histological alterations); 0.15 mg/kg-day with Monkey (chronic, duration: 26 weeks, M, Body Weight: 13.5% reduction in final body weight); 13.3 mg/kg-day in the series on Monkey (chronic, duration: 315 days, M); 2 mg/kg-day in the series on Monkey (short-term, duration: 4 weeks, M/F, Immunotoxicological: No histological alteration + Reproductive: No histological alterations). Moreover, the NOAEL was 1 mg/kg-day in the series with Oryctolagus sp. (developmental, Developmental: Decreased fetal body weight / 10% at […] and 24% at 3.75 mg/kg/day / 10/22 does aborted between GD 22 and 28 at 3.75 mg/kg/…); 0.1 mg/kg-day in the series with Oryctolagus sp. (setting [7]). The lowest observed adverse effect level (LOAEL) with Monkey (setting [6]) was 0.75 mg/kg-day; in the series with Monkey (chronic, duration: 26 weeks, M, Body Weight: 13.5% reduction in final body weight + Reproductive: Significant decrease in serum estradiol on days 62 (48%), 91 (42%), and …), 0.75 mg/kg-day; in the series on Monkey (chronic, duration: 315 days, M, Endocrine: Decreased serum T4 / values still within normal range + Hepatic: Decrease in HDL cholesterol / values still within normal range), 13.3 mg/kg-day; in the series on Oryctolagus sp. (setting [7]), 1 mg/kg-day.

For orientation: LOAEL means the lowest dose or exposure tested at which an adverse effect was seen. By NOAEL is commonly meant the highest tested level that showed no adverse finding.

The values above are taken from EPA's ToxValDB 9.5.
